Laboratory results as given in patent US20110318270A1, “DRUG IDENTIFICATION PROTOCOL FOR TYPE 2 DIABETES BASED ON GENE EXPRESSION SIGNATURES” (VERVA PHARMACEUTICALS LTD, priority 2009, published 2011).

Tests used:
3T3-L1 adipocytes [1] = experiment: Reversal of TNFα-induced insulin resistance, 2-deoxyglucose (2-DOG) uptake; assay type: cell-based; conditions: 5 mM ASA and/or 10 μM TGZ in final 24 h of 72 h TNFα treatment
Protocol: Initially, a model of TNFα-induced insulin resistance in 3T3-L1 adipocytes was established as described previously (Sartipy and Loskutoff J Biol Chem 278:52298-52306, 2003). Following exposure of 3T3-L1 adipocytes to 3 ng/ml TNFα for 72 h, insulin resistance was determined by the ability of the cells to take up 2-deoxyglucose (2-DOG) in response to insulin. TNFα caused a 37% decrease in 2-DOG uptake compared with insulin-stimulated vehicle-treated cells (p<0.0001) (Table 1).
3T3-L1 adipocytes were either treated with vehicle—(Veh), 3 ng/ml TNFα-(TNF) or 3 ng/ml TNFα plus 10 μM TGZ and 5 mM ASA (TTA) as detailed above. Cells were then treated with insulin (0 or 10 nM) for 30 min followed by measurement of 2-deoxyglucose (2-DOG) uptake over the final 10 min of insulin stimulation. Data are presented as % change in 2-DOG uptake compared with vehicle-treated, insulin-stimulated cells and represent mean values±SEM of >3 independent experiments and each data point was assayed in triplicate. […] The amount of 2-DOG transported in vehicle-treated adipocytes was 20.5±3.4 pmol/min/well. Statistical analyses were performed using Student's t-Test assuming 2-tailed distribution and 2-sample equal variance.

3T3-L1 adipocytes [2] = experiment: HA-tagged GLUT4 translocation to the plasma membrane; assay type: cell-based; conditions: 10 μM for 20 h (ASA 5 mM), then 0.5 nM insulin
Protocol: FIGS. 2a and 2b are graphical representations of a compound stimulation of HA-tagged GLUT4 translocation to the plasma membrane in 3T3-L1 adipocytes. Adipocytes were incubated with 10 μM of each compound for 20 h prior to acute stimulation with 0.5 nM of insulin and measurement of HA-tagged GLUT4 translocation to the plasma membrane. a. The effect of the compound classes closest to TNFα plus ASA and TGZ co-incubated samples GES profile (see FIG. 1) on HA-tagged GLUT4 movement. Data are presented as fold change compared with 0.5 nM insulin alone set at 1.0 and represent mean values±SEM; n=12-40 per class. b. Individual CAI members effect on GLUT4 movement. […]
A secondary screen was next undertaken to test the 8 drug classes ranked most similar to the insulin re-sensitised TNFαplus ASA and TGZ co-treated samples to determine their ability to affect exogenous HA-tagged GLUT4 translocation to the plasma membrane in the presence of submaximal 0.5 nM insulin (Govers et al. Mol Cell Biol 24:6456-6466, 2004). Members from the sodium channel blockers, beta lactams, GABA antagonists, sulfamide antifolates, lipoxygenase inhibitors, dopamine antagonists, carbonic anhydrase inhibitors (CAIs) and antibiotics were incubated at 10 μM doses for 20 h and the overall effect of each class member was assessed and averaged.

SMILES: CC(=O)Oc1ccccc1C(=O)O [ASA, aspirin]
- reversal of TNFα impairment of insulin-stimulated 2-DOG uptake (3T3-L1 adipocytes [1]): fully reversed TNFα effects
- HA-GLUT4 translocation above submaximal insulin (3T3-L1 adipocytes [2]): increased
